Reference: patent US11091786B2, “Butelase-mediated peptide ligation” (Nanyang Technological University, priority 2015, dated 2021)
Values after ≈ are worked out from the molar mass of the structure shown. Numbered stars: 1 amine (or outer) side, 2 acyl side, 3 side chain; on linkers, the order of the positions; unused ones are H or OH. Bridge positions count the residues as written; N and C are the ends. Square brackets hold non-standard residues; d marks the D form. Side chains are listed from the residue outwards. Ends that are not written are not given here. Peptide text beside a SMILES is read from it. I, II: the chains in the order shown. X1 = O=C(CO[*:1])[*:2]; βAla = NCCC(=O)O

B1: Butelase 1: Asn/Asp(Asx)-specific ligase isolated from the medicinal plant Clitoria ternatea (SEQ ID NO:1) (protein, listed as Clitoria ternatea)
chain: VEGTRWAVLVAGSKGYVNYRHQADVCHAYQILKKGGLKDENIIVFMYDDIAYNESNPHPGVIINHPYGSDVYKGVPKDYVGEDINPPNFYAVLLANKSALTGTGSGKVLDSGPNDHVFIYYTDHGGAGVLGMPSKPYIAASDLNDVLKKKHASGTYKSIVFYVESCESGSMFDGLLPEDHNIYVMGASDTGESSWVTYCPLQHPSPPPEYDVCVGDLFSVAWLEDCDVHNLQTETFQQQYEVVKNKTIVALIEDGTHVVQYGDVGLSKQTLFVYMGTDPANDNNTFTDKNSLGTPRKAVSQRDADLIHYWEKYRRAPEGSSRKAEAKKQLREVMAHRMHIDN

Key:
[1] = test system: E. coli; format: cell-based
Protocol: (§1) The materials for radial diffusion assay were prepared as following:
(§2) Trypticase soy broth (TSB): Full-strength broth contains 30 grams of TSB powder per liter of deionized water. It was autoclaved at 120° C. for 20 min and stored at room temperature.
(§3) Underlay gel: 50 mL of […] sodium phosphate buffer, 5 ml full-strength TSB and 5 g agarose were mixed in a beaker followed by addition of deionized water to 500 mL. The medium was autoclaved at 120° C. for 20 min. Before use, it was maintained at 42° C. to prevent from solidifying.
(§4) Overlay gel: One liter of overlay gel contains 60 g of TSB powder and 10 g of agarose. The medium was autoclaved at 120° C. for 20 min. To prevent from solidifying, it was maintained at 42° C. before use.
(§5) The following protocol was applied to the radial diffusion assay.
(§6) 1. A single colony was picked and transferred into a 5 ml tube containing 2.5 ml TSB. The culture was shaken at 37° C. for 18 h.
(§7) 2. 50 μl of the stationary phase culture was diluted to 2.5 mL of autoclaved TSB (1:50 dilution) and shaken at 37° C. for another 3 h.
(§8) 3. This subculture was centrifuged at 5000 rpm for 5 min and the supernatant was discarded. The residual cells were washed with cold sterile 10 mM phosphate buffer, pH 7.4 and the buffer was discarded after centrifuge. 5 ml of the same buffer was added to resuspend the cells and its bacteria concentration was determined by measuring its optical density at 620 nm.
(§9) 4. 10 ml of antoclaved, molten underlay gel agar was transferred to a 15-ml eppendorf tube and mixed with 4×10^6 CFU of bacteria by vortexing. The mixture was then poured into a petri dish and gelled in less than […]. Wells were punched against the gel using a Pasteur pippette.
(§10) 5. Peptides to be tested were serially diluted and 3.5 μl of each sample was added to the well. The plates were incubated at 37° C. for 3 h with gel-side up.
(§11) 6. Next, each underlay gel was covered with 10 ml of overlay gel. After the gel solidified, the plates were turned gel-side up and incubated at 37° C. for overnight.
(§12) 7. The following morning, all the plates were taken out and the zone diameters were measured with ruler. All the samples were tested in duplicates and the results were averaged. The final minimum inhibition concentration (MIC) was determined using excel.
(§13) There is a growing interest to develop peptide-based antibiotics (Annu Rev Immunol. 1995, 13, 61-92; J Intern Med. 2003, 254, 197-215; Cent Eur J Biol 2007, 2, 1-33; Int J Pept Res Ther. 2010, 16, 199-213) because, compared with conventional antibiotics, they are less likely to develop drug resistance and have fewer side effects (J Med Chem. 2015, 58, 6533-6548; Biochemistry-Us. 2000, 39, 7159-7169; Eur J Biochem. 2000, 267, 3289-3300; Nucleic Acids Res. 2012, 40, W199-204). To apply the presently disclosed enzymatic method in preparing dendrimeric antimicrobials, inventors synthesized two antimicrobials 12 (bivalent) and 13 (tetravalent) (MS shown in supporting information) which harbored a tetrapeptide RLYR (SEQ ID NO:121) as the antibacterial sequence (Eur J Biochem. 2002, 269, 923-932) by ligating N-acetylated thiodepsipeptide 10 Ac-RLYRN-thioglc-V (SEQ ID NO:120) with dendron core 2 and 6 respectively. The RLYR (SEQ ID NO:121) tetrapeptide contains a BHHB motif (B=basic, H=hydrophobic) which is commonly found in certain potent and broad-spectrum β-stranded antimicrobial peptides (BioDrugs. 2013, 27, 479-493) such as PG (protegrins) (Febs Lett. 1993, 327, 231-236) and RTD-1 (rhesus monkey theta defensin) (Science. 1999, 286, 498-502). This consensus motif with positive charged and hydrophobic residues was successfully used as a dendrimeric antimicrobial in 2002 (Eur J Biochem. 2002, 269, 923-932). Such short peptide-based dendrimeric antimicrobials are broad-spectrum antibiotics and kill bacterial cells through electrostatic and hydrophobic interactions with the negatively charged microbial cytoplasmic membranes (Biochemistry-Us. 2009, 48, 5642-5657). […]

[2] = test system: S. aureus; format: cell-based
Protocol: as §1, §2, §3, §4, §5, §6, §7, §8, §9, §10, §11, §12, §13

[3] = Degradation time course of peptide in reaction buffer without butelase 1 (HPLC); format: physicochemical; conditions: absence of butelase 1, peptide 100 μM, 42° C.
Protocol: (§14) FIG. 9. Degradation time course for thiodepsipeptide 1 and depsipeptide 2. Each peptide (100 μM) was incubated in the absence or presence of butelase 1 (50 nM) at 42° C. The peptide stability was monitored by HPLC every […].
(§15) To apply butelase 1 for N-terminal labeling of proteins, inventors used ubiquitin and green fluorescent protein (GFP) as examples (FIG. 4). Since butelase 1 prefers a hydrophobic amino acid (Ile/Leu/Val) or Cys at the P2″ position of an acceptor nucleophile, inventors prepared a recombinant ubiquitin protein (SEQ ID NO:122) with Gly-Ile at the N-terminus and His-tag at the C-terminus. It was also examined whether this method would work if His-tag was located at the N-terminus. Inventors thus prepared a recombinant GFP (SEQ ID NO:123) with an additional Ile inserted between the start codon and the N-terminal His-tag. Both proteins were labeled with the model thiodepsipeptide 1 in the presence of 0.001 molar equivalent of butelase 1. The labeling of proteins was slower as compared to the labeling of peptide 5, probably due to large differences in size between the model peptide and proteins. Furthermore, the N-terminal amino group of proteins may have a lower accessibility to butelase 1 as compared to peptides. […]

[4] = test system: butelase 1; test: Degradation time course of peptide in the presence of butelase 1 (HPLC); format: biochemical; conditions: Clitoria ternatea, butelase 1 in reaction buffer, presence of 0.0005 molar equivalent of butelase 1 (50 nM), peptide 100 μM, 42° C.
Protocol: as §14, §15

[5] = test system: butelase 1; test: Butelase-mediated ligation kinetic characterization (Lineweaver-Burk); format: biochemical, Clitoria ternatea; conditions: 0.1 μM butelase 1, 1 mM GIGGIR, peptide 25 to 400 μM, pH 6.5, 42° C.
Protocol: Ligation assays were performed in 50-μl mixtures containing reaction buffer (1 mM EDTA, 20 mM phosphate buffer, pH 6.5), 0.1 […] butelase 1, 1 mM GIGGIR (SEQ ID NO:114) and varying concentrations of peptides 1-4 (25 to 400 μM). The reactions were performed in triplicate at 42° C. and quenched by adding 5 μl of 1 M HCl solution. The peptides were separated by using a reversed-phase C18 analytical column (150×2.1 mm, Vydac) with a linear gradient from 5% to 40% acetonitrile over 15 min on a Nexera UHPLC system (Shimadzu). The ligation velocities were calculated by converting the HPLC-peak areas of remained linear precursors or the ligated products into concentrations. The identity of each HPLC peak was analyzed by MALDI-TOF MS (ABI 4800 MALDI TOF/TOF). The kinetic parameters (kcat and Km) for each peptide were obtained by the LineweaverBurk plot.

[6] = test system: butelase 1; conditions: highest reported value; cited from earlier work

| Molecule | MIC [1] [µM] | MIC [2] [µM] | Km [5] [µM] | kcat [5] [s⁻¹] | other results |
| --- | --- | --- | --- | --- | --- |
| CC[C@H](C)[C@H](NC(=O)[C@@H](N)CCCNC(=N)N)C(=O)NCCC(=O)NCCCC[C@H](NC(=O)CCNC(=O)[C@@H](NC(=O)[C@@H](N)CCCNC(=N)N)[C@@H](C)CC)C(=O)N[C@@H](Cc1ccc(O)cc1)C(N)=O [Bivalent dendron core 2, (RIβA)2KY] (H-RI[βAla]K([βAla-Ile-Arg])Y-NH2; N-terminus assumed) | >150 | >150 | – | – | – |
| CC[C@H](C)[C@H](NC(=O)[C@H](CCCNC(=N)N)NC(=O)[C@H](CC(N)=O)NC(=O)[C@H](CCCNC(=N)N)NC(=O)[C@H](Cc1ccc(O)cc1)NC(=O)[C@H](CC(C)C)NC(=O)[C@H](CCCNC(=N)N)NC(C)=O)C(=O)NCCC(=O)NCCCC[C@H](NC(=O)CCNC(=O)[C@@H](NC(=O)[C@H](CCCNC(=N)N)NC(=O)[C@H](CC(N)=O)NC(=O)[C@H](CCCNC(=N)N)NC(=O)[C@H](Cc1ccc(O)cc1)NC(=O)[C@H](CC(C)C)NC(=O)[C@H](CCCNC(=N)N)NC(C)=O)[C@@H](C)CC)C(=O)N[C@@H](Cc1ccc(O)cc1)C(N)=O [Dimer 12, (Ac-RLYRNRIβA)2KY] (I: Ac-RLYRNRI[βAla]KY-NH2 / II: Ac-RLYRNRI[βAla]; amide I:9-II:C) | 18.3 (≈ 45.4 µg/mL) | 3.4 (≈ 8.43 µg/mL) | – | – | – |
| CC(C)C[C@H](NC(=O)[C@@H](N)CCCNC(=N)N)C(=O)N[C@@H](Cc1ccc(O)cc1)C(=O)N[C@@H](CCCNC(=N)N)C(N)=O [Monomer 11, RLYR, reference compound] (H-RLYR-NH2; N-terminus assumed) | >300 | >300 | – | – | antimicrobial activity (in words) ([1]; E. coli, high-salt condition (100 mM NaCl)): no appreciable activity; antimicrobial activity (in words) ([2]; S. aureus, high-salt condition (100 mM NaCl)): no appreciable activity |
| CC(C)[C@H](NC(=O)CSC(=O)[C@H](CC(N)=O)NC(=O)[C@H](CCCCN)NC(=O)[C@@H](N)Cc1ccc(O)cc1)C(N)=O [Peptide 1, YKN(S)GV] | – | – | 2760 ± 300 | 56.5 ± 7.5 | half-life at 100 μM [3]: ~75 min; half-life at 100 μM [4]: 40 min |
| CC(C)[C@H](NC(=O)COC(=O)[C@H](CC(N)=O)NC(=O)[C@H](CCCCN)NC(=O)[C@@H](N)Cc1ccc(O)cc1)C(N)=O [Peptide 2, YKN(O)GV] (H-YKN[X1]V-NH2; N-terminus assumed) | – | – | 740 ± 10 | 12.4 ± 0.32 | half-life at 100 μM [3]: 45 min; half-life at 100 μM [4]: 37 min |
| CC[C@H](C)[C@H](NC(=O)[C@@H](N)CCCNC(=N)N)C(=O)NCCC(=O)NCCCC[C@H](NC(=O)CCNC(=O)[C@@H](NC(=O)[C@@H](N)CCCNC(=N)N)[C@@H](C)CC)C(=O)NCCCC[C@H](NC(=O)[C@H](CCCCNC(=O)CCNC(=O)[C@@H](NC(=O)[C@@H](N)CCCNC(=N)N)[C@@H](C)CC)NC(=O)CCNC(=O)[C@@H](NC(=O)[C@@H](N)CCCNC(=N)N)[C@@H](C)CC)C(=O)N[C@@H](Cc1ccc(O)cc1)C(N)=O [Tetravalent dendron core 6, (RIβA)4K2KY] | >150 | >150 | – | – | – |
| YKNGV (not fully specified (C-terminus)) [Peptide 4] | – | – | 880 ± 80 | 7.9 ± 0.72 | – |
| YKNHV (not fully specified (C-terminus)) [Peptide 3] | – | – | 300 ± 10 | 4.1 ± 0.65 | – |
| B1 | – | – | – | – | catalytic efficiency [6]: up to 542,000 M^−1 s^−1 |
